# Experimental data taken from US20080311126A1, “Antisense Oligonucleotides Directed to Ribonucleotide Reducatase R2 and Uses Thereof in Combination Therapies for the Treatment of Cancer” (Genesense Technologies, Inc, priority 2004, published 2008).
# Entries after “also recorded” stand apart in the source; their conditions may differ.
# Key:
# Assay type in all cases: in vivo
# Human Cervical Carcinoma = assay: Tumour growth assay, human cervical carcinoma in SCID mice
# Human Lung Carcinoma = assay: Tumour growth assay, human lung carcinoma in CD-1 Nude mice
# [1] = test system: A498 human renal carcinoma; assay: A498 renal tumour xenograft in SCID mice, SEQ ID NO:1 and interferon alpha
# Experimental: Cell line: Human renal carcinoma cell line (A498) was grown as monolayer culture in Minimum essential medium (α-MEM) supplemented with 10% fetal bovine serum (FBS), 0.1 mM non-essential amino acid, 1.0 mM sodium pyruvate, 100 U/ml penicillin, 100 μg/ml streptomycin and 0.25 μg/ml amphotericin B and 2 mM L-alanyl-1-glutamine at 37° C. in an atmosphere of 5% CO2 in air. The tumour cells were routinely subcultured twice weekly by trypsin-EDTA treatment. The cells were harvested from subconfluent logarithmically growing culture by treatment with trypsin-EDTA and counted for tumour inoculation.
# Tumour Inoculation: An acclimation period of at least 7 days was allowed between animal receipt and commencement of tumour inoculation. When the female SCID mice were 6-7 weeks of age (20-25 g), each mouse was subcutaneously injected with 9×10^6 A498 human renal carcinoma cells in 0.1 ml of PBS at the right flank of the mice to induce tumour growth.
# Dose Preparation and Treatment: The dose for SEQ ID NO:1 was formulated using the following procedure. From a concentrated stock solution (usually prepared in ddH2O at a concentration of 50 mg/ml and kept at −80° C.), SEQ ID NO:1 was diluted with saline to achieve a final target concentration of 1 or 2.5 mg/ml on the first day of dosing. Enough SEQ ID NO:1 was diluted so that the compound could be administered by bolus infusion into the tail vein every other day for the duration of the experiment. Recombinant interferon alfa-2b (ntron A™) was employed according to the dose and treatment schedules below. The treatments were started 20 days after the tumour cell inoculation when the tumour size reached an approximate volume of 200 mm^3. Each treatment group contained 10 tumour-bearing mice. Routes of administration are as follows: intravenous (i.v.) and intratumoural (i.t.).
# • 1. Saline treated group-1: saline 0.1 ml/mouse/48 hours, i.v., n=10 • 2. Saline treated group-2: saline 0.05 ml/mouse/5 days/week, i.t., n=10 • 3. SEQ ID NO:1 treated group: 1 mg/kg/48 hours in 0.1 ml saline, i.v. n=10 • 4. SEQ ID NO:1 treated group: 2.5 mg/kg/48 hours in 0.1 ml saline, i.v., n=10 • 5. […]
# Treatment started from day 20 after inoculation of human renal tumour cells. […]
# Endpoints: The effects of SEQ ID NO:1 and Intron A on tumour growth was determined. Tumour sizes were measured every week from day 20 after the tumour cell inoculation in two dimensions using a caliper, and the volume was expressed in mm^3 using the formula: V=0.5 a×b^2, where a and b are the long and short diameters of the tumour, respectively. Mean tumour volumes calculated from each measurement were then plotted in a standard graph to compare the anti-tumour efficacy to that of controls. A day after the last treatment, tumours were excised from the animals and their weights were measured. […]
# [2] = test system: A2058 human melanoma cells; assay: A2058 melanoma xenograft in CD-1 nude mice
# Experimental: A2058 human melanoma cells 1×10^7 cells in 100 μl of PBS) were subcutaneously injected into the right flank of 6-7 week old female CD-1 nude mice. A2058 is a metastatic melanoma cell line. After the size of tumour reached an approximate volume of 100 mm^3, 6 days post tumour cell injection, SEQ ID NO:1 was administered by bolus infusion into the tail vein every other day at 10 mg/kg. Control animals received saline alone for the same period. Antitumour effect of SEQ ID NO:1 was further compared to that of dacarbazine (DTIC) alone or that of SEQ ID NO:1 in combination with DTIC. DTIC was administered intravenously for 5 days in a row from day 6-10 at a dose of 80 mg/kg in 100 μl saline. All treatments were stopped at day 24. A day after the last treatment, tumours were excised from the animals and their weights were measured.
# [3] = test system: Human Pancreatic Adenocarcinoma; assay: Tumour growth assay, human pancreatic adenocarcinoma in mice
# [4] = Human Cervical Carcinoma^2 (second entry), SCID mice, Day 17 after tumour implantation
sequence,measurement,setting,value
"GGCTAAATCGCTCCACCAAG (chemistry not given here) [SEQ ID NO: 1, antisense oligonucleotide that hybridizes to the coding region of human ribonucleotide reductase R2 mRNA]",Inhibition of tumour weight,Human Cervical Carcinoma; Human Cervical Carcinoma^2 (first entry),approximately 90%
same,Inhibition of tumour size,Human Cervical Carcinoma; [4],approximately 60% in SCID mice on
same,Inhibition of tumour weight,Human Cervical Carcinoma; [4],approximately 60% in SCID mice on
same,Inhibition of tumour size,"Human Lung Carcinoma; CD-1 Nude mice, Days 14 to 19 after tumour implantation",approximately 85% in CD-1 Nude mice
same,Inhibition of tumour weight,Human Lung Carcinoma; Human Lung Carcinoma,approximately 70%
same,"anti-tumour efficacy (tumour volume, tumour weight)","[1]; Example 6, SEQ ID NO:1 1 or 2.5 mg/kg/48 hours i.v., Intron A 10^3 or 10^5 unit 5 days/week i.t.",significant anti-tumour efficacy
same,"anti-tumour efficacy (tumour volume, tumour weight)","[1]; Example 7, SEQ ID NO:1 2.5 mg/kg/2ds i.v., 10000 units Intron A x5/week for 2 weeks i.t.",significant anti-tumour efficacy
same,Tumour weight as % of saline control,"[2]; A2058 (melanoma), Mouse CD-1",20%
same,antitumour effect (tumour weight),"[2]; SEQ ID NO:1 10 mg/kg every other day i.v., DTIC 80 mg/kg i.v. 5 days",significant delay of tumour growth; also recorded: superior to the inhibitory effects observed with DTIC alone
same,Inhibition of tumour weight,[3]; Human Pancreatic Adenocarcinoma,approximately 65%
same,inhibition of tumour growth,[3]; up to 39 days after tumour implantation,Complete inhibition of tumour growth
